Earlier results, collected in patent publication US6214377A (Jenapharm GmbH, priority 1994, dated 2001).

How the values were obtained:
[1] = peroral administration
[2] = human body

## COc1ccc2[nH]cc(CCNC(C)=O)c2c1 [melatonin, N-acetyl-5-methoxy-triptamine]
[1]
  side effects of unphysiological overdose: Increased spasmogenic situations, confusion, and sleeplessness
[2]
  half-life period: about 30 minutes
